Results: PMC12649549, “Sequence Permutation Generated Lysine and Tryptophan-Rich Antimicrobial Peptides with Enhanced Therapeutic Index” (Antibiotics, 2025)
Where two headings read alike, the source gives them in different places.

How the values were obtained:
[1] = system: A. baumannii 14B00100 (Acinetobacter sp., BCRC number 14B0100)
In short: (§1)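 Broth microdilution per CLSI in Müller-Hinton broth and modified LYM broth (pH 7.4; variants with 300–50 mM NaCl, 2.5–0.5 mM MgCl2, or pH 6.5–4.5). Inoculum 5 × 10^5 CFU/mL; peptides at final 50 to 0.78 µg/mL, twofold series. MIC reported; three independent repeats.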

S. aureus ATCC 33591 = system: S. aureus ATCC 33591
In short: as §1

[2] = system: A. baumannii 14B0097 (Acinetobacter sp., BCRC number 14B0097)
In short: as §1

[3] = system: A. baumannii 14B0091 (Acinetobacter sp., BCRC number 14B0091)
In short: as §1

[4] = system: Pseudomonas aeruginosa Migula (ATCC 27853)
In short: as §1

S. aureus ATCC 25923 = system: S. aureus ATCC 25923
In short: as §1

S. aureus ATCC 6538 = system: S. aureus ATCC 6538
In short: as §1

[5] = LYM broth, 0 mM NaCl, 16 h, 37 °C
[6] = LYM broth, 50 mM NaCl, 16 h, 37 °C
[7] = LYM broth, 100 mM NaCl, 16 h, 37 °C
[8] = LYM broth, 200 mM (NaCl), 16 h, 37 °C
[9] = LYM broth, 300 mM (NaCl), 16 h, 37 °C
[10] = MH broth, 5 × 10^5 CFU/mL, 16 h, 37 °C, repeated three times

Measured: MIC

Ac-RKWLKWLAKKKKW-NH2 [Peptide W5K03]
6.25 µg/mL: [1]; [8] | [2]; [8] | [2]; [10] | [3]; [8] | [3]; [10] | [4]; [5] | [4]; LYM broth, 0.5 mM MgCl2 | [4]; LYM broth, pH 5.5 | S. aureus ATCC 25923; [5] | S. aureus ATCC 25923; LYM broth, 0.5 mM MgCl2 | S. aureus ATCC 25923; LYM broth, pH 4.5 | S. aureus ATCC 6538; LYM broth, 2.5 mM MgCl2 | S. aureus ATCC 6538; [7] | S. aureus ATCC 6538; LYM broth, pH 4.5
3.13 µg/mL: [1]; LYM broth, 0.5 mM MgCl2 | [1]; LYM broth, 1.5 mM MgCl2 | [1]; LYM broth, 2.5 mM MgCl2 | [1]; [6] | [1]; [7] | [2]; LYM broth, 0.5 mM MgCl2 | [2]; LYM broth, 1.5 mM MgCl2 | [2]; LYM broth, 2.5 mM MgCl2 | [2]; [6] | [2]; [7] | [2]; LYM broth, pH 4.5 | [2]; LYM broth, pH 5.5 | [2]; LYM broth, pH 6.5 | [3]; LYM broth, 1.5 mM MgCl2 | [3]; LYM broth, 2.5 mM MgCl2 | [3]; [6] | [3]; [7] | [3]; LYM broth, pH 4.5 | [3]; LYM broth, pH 5.5 | [4]; LYM broth, pH 6.5 | S. aureus ATCC 25923; LYM broth, pH 5.5 | S. aureus ATCC 25923; LYM broth, pH 6.5 | S. aureus ATCC 6538; LYM broth, 0.5 mM MgCl2 | S. aureus ATCC 6538; LYM broth, 1.5 mM MgCl2 | S. aureus ATCC 6538; [6] | S. aureus ATCC 6538; LYM broth, pH 5.5 | S. aureus ATCC 6538; LYM broth, pH 6.5
1.56 µg/mL: [1]; [5] | [1]; LYM broth, pH 4.5 | [1]; LYM broth, pH 5.5 | [1]; LYM broth, pH 6.5 | [2]; [5] | [3]; [5] | [3]; LYM broth, 0.5 mM MgCl2 | [3]; LYM broth, pH 6.5 | S. aureus ATCC 6538; [5]
25 µg/mL: S. aureus ATCC 33591; [5] | S. aureus ATCC 33591; LYM broth, 0.5 mM MgCl2 | S. aureus ATCC 33591; LYM broth, 1.5 mM MgCl2 | S. aureus ATCC 33591; LYM broth, pH 4.5 | S. aureus ATCC 33591; LYM broth, pH 5.5 | [2]; [9] | [3]; [9] | [4]; [7] | [4]; [8] | S. aureus ATCC 25923; [7] | S. aureus ATCC 6538; [9] | S. aureus ATCC 6538; [10]
50 µg/mL: S. aureus ATCC 33591; LYM broth, 2.5 mM MgCl2 | S. aureus ATCC 33591; [6] | S. aureus ATCC 33591; [7] | [4]; [10] | S. aureus ATCC 25923; [10]
12.5 µg/mL: [1]; [9] | [1]; [10] | S. aureus ATCC 33591; LYM broth, pH 6.5 | [4]; LYM broth, 1.5 mM MgCl2 | [4]; LYM broth, 2.5 mM MgCl2 | [4]; [6] | [4]; LYM broth, pH 4.5 | S. aureus ATCC 25923; LYM broth, 1.5 mM MgCl2 | S. aureus ATCC 25923; LYM broth, 2.5 mM MgCl2 | S. aureus ATCC 25923; [6] | S. aureus ATCC 6538; [8]
>50 µg/mL: S. aureus ATCC 33591; [8] | S. aureus ATCC 33591; [9] | S. aureus ATCC 33591; [10] | [4]; [9] | S. aureus ATCC 25923; [8] | S. aureus ATCC 25923; [9]

Ac-WLAKKKKWRKWLK-NH2 [Peptide W5K08]
25 µg/mL: [1]; [7] | S. aureus ATCC 33591; [5] | S. aureus ATCC 33591; LYM broth, 0.5 mM MgCl2 | S. aureus ATCC 33591; LYM broth, pH 4.5 | S. aureus ATCC 33591; LYM broth, pH 5.5 | [2]; [10] | [3]; [7] | [4]; [7] | [4]; [10] | S. aureus ATCC 25923; [10] | S. aureus ATCC 6538; [6]
50 µg/mL: S. aureus ATCC 33591; LYM broth, 1.5 mM MgCl2 | S. aureus ATCC 33591; LYM broth, 2.5 mM MgCl2 | S. aureus ATCC 33591; [6] | S. aureus ATCC 33591; [7] | S. aureus ATCC 33591; [8] | [2]; [8] | [4]; [8] | S. aureus ATCC 25923; [8] | S. aureus ATCC 6538; [7] | S. aureus ATCC 6538; [8]
12.5 µg/mL: S. aureus ATCC 33591; LYM broth, pH 6.5 | [2]; [7] | [4]; LYM broth, 2.5 mM MgCl2 | S. aureus ATCC 25923; [7] | S. aureus ATCC 6538; [5] | S. aureus ATCC 6538; LYM broth, pH 4.5
1.56 µg/mL: S. aureus ATCC 25923; [5] | S. aureus ATCC 25923; LYM broth, pH 6.5
3.13 µg/mL: [1]; [5] | [1]; LYM broth, 0.5 mM MgCl2 | [1]; LYM broth, 1.5 mM MgCl2 | [1]; LYM broth, pH 4.5 | [1]; LYM broth, pH 5.5 | [1]; LYM broth, pH 6.5 | [2]; [5] | [2]; LYM broth, 0.5 mM MgCl2 | [2]; LYM broth, 1.5 mM MgCl2 | [2]; LYM broth, pH 5.5 | [2]; LYM broth, pH 6.5 | [3]; [5] | [3]; LYM broth, 0.5 mM MgCl2 | [3]; LYM broth, 1.5 mM MgCl2 | [3]; LYM broth, pH 5.5 | [3]; LYM broth, pH 6.5 | [4]; [5] | [4]; LYM broth, 0.5 mM MgCl2 | [4]; LYM broth, pH 5.5 | [4]; LYM broth, pH 6.5 | S. aureus ATCC 25923; LYM broth, 0.5 mM MgCl2 | S. aureus ATCC 25923; [6] | S. aureus ATCC 25923; LYM broth, pH 4.5 | S. aureus ATCC 25923; LYM broth, pH 5.5 | S. aureus ATCC 6538; LYM broth, 0.5 mM MgCl2
>50 µg/mL: [1]; [8] | [1]; [9] | [1]; [10] | S. aureus ATCC 33591; [9] | S. aureus ATCC 33591; [10] | [2]; [9] | [3]; [8] | [3]; [9] | [3]; [10] | [4]; [9] | S. aureus ATCC 25923; [9] | S. aureus ATCC 6538; [9] | S. aureus ATCC 6538; [10]
6.25 µg/mL: [1]; LYM broth, 2.5 mM MgCl2 | [1]; [6] | [2]; LYM broth, 2.5 mM MgCl2 | [2]; [6] | [2]; LYM broth, pH 4.5 | [3]; LYM broth, 2.5 mM MgCl2 | [3]; [6] | [3]; LYM broth, pH 4.5 | [4]; LYM broth, 1.5 mM MgCl2 | [4]; [6] | [4]; LYM broth, pH 4.5 | S. aureus ATCC 25923; LYM broth, 1.5 mM MgCl2 | S. aureus ATCC 25923; LYM broth, 2.5 mM MgCl2 | S. aureus ATCC 6538; LYM broth, 1.5 mM MgCl2 | S. aureus ATCC 6538; LYM broth, 2.5 mM MgCl2 | S. aureus ATCC 6538; LYM broth, pH 5.5 | S. aureus ATCC 6538; LYM broth, pH 6.5

Ac-WLKWLAKKKKWRK-NH2 [Peptide W5K05]
25 µg/mL: S. aureus ATCC 33591; [8] | [2]; [9] | [3]; [9] | [4]; [10] | S. aureus ATCC 25923; [10] | S. aureus ATCC 6538; [9]
50 µg/mL: S. aureus ATCC 33591; [9] | S. aureus ATCC 33591; [10] | S. aureus ATCC 25923; [8] | S. aureus ATCC 25923; [9]
6.25 µg/mL: [1]; [8] | S. aureus ATCC 33591; [5] | S. aureus ATCC 33591; LYM broth, 0.5 mM MgCl2 | S. aureus ATCC 33591; [6] | S. aureus ATCC 33591; LYM broth, pH 4.5 | [2]; [8] | [2]; [10] | [3]; [8] | [4]; LYM broth, 2.5 mM MgCl2 | [4]; [6] | S. aureus ATCC 25923; [7] | S. aureus ATCC 6538; [7]
>50 µg/mL: [4]; [8] | [4]; [9]
12.5 µg/mL: [1]; [9] | [1]; [10] | S. aureus ATCC 33591; LYM broth, 1.5 mM MgCl2 | S. aureus ATCC 33591; LYM broth, 2.5 mM MgCl2 | S. aureus ATCC 33591; [7] | [3]; [10] | [4]; [7] | S. aureus ATCC 6538; [8] | S. aureus ATCC 6538; [10]
1.56 µg/mL: [1]; LYM broth, 0.5 mM MgCl2 | [1]; LYM broth, 1.5 mM MgCl2 | [1]; LYM broth, 2.5 mM MgCl2 | [1]; [6] | [1]; LYM broth, pH 4.5 | [1]; LYM broth, pH 5.5 | [1]; LYM broth, pH 6.5 | [2]; [5] | [2]; LYM broth, 0.5 mM MgCl2 | [2]; LYM broth, 1.5 mM MgCl2 | [2]; LYM broth, 2.5 mM MgCl2 | [2]; LYM broth, pH 5.5 | [2]; LYM broth, pH 6.5 | [3]; [5] | [3]; LYM broth, 0.5 mM MgCl2 | [3]; LYM broth, 1.5 mM MgCl2 | [3]; LYM broth, 2.5 mM MgCl2 | [3]; [6] | [3]; LYM broth, pH 5.5 | [3]; LYM broth, pH 6.5 | [4]; LYM broth, pH 4.5 | [4]; LYM broth, pH 5.5 | [4]; LYM broth, pH 6.5 | S. aureus ATCC 25923; [5] | S. aureus ATCC 25923; LYM broth, 0.5 mM MgCl2 | S. aureus ATCC 25923; LYM broth, pH 4.5 | S. aureus ATCC 25923; LYM broth, pH 5.5 | S. aureus ATCC 25923; LYM broth, pH 6.5 | S. aureus ATCC 6538; LYM broth, 0.5 mM MgCl2 | S. aureus ATCC 6538; LYM broth, 1.5 mM MgCl2 | S. aureus ATCC 6538; LYM broth, pH 5.5 | S. aureus ATCC 6538; LYM broth, pH 6.5
0.78 µg/mL: [1]; [5]
3.13 µg/mL: [1]; [7] | S. aureus ATCC 33591; LYM broth, pH 5.5 | S. aureus ATCC 33591; LYM broth, pH 6.5 | [2]; [6] | [2]; [7] | [2]; LYM broth, pH 4.5 | [3]; [7] | [3]; LYM broth, pH 4.5 | [4]; [5] | [4]; LYM broth, 0.5 mM MgCl2 | [4]; LYM broth, 1.5 mM MgCl2 | S. aureus ATCC 25923; LYM broth, 1.5 mM MgCl2 | S. aureus ATCC 25923; LYM broth, 2.5 mM MgCl2 | S. aureus ATCC 25923; [6] | S. aureus ATCC 6538; [5] | S. aureus ATCC 6538; LYM broth, 2.5 mM MgCl2 | S. aureus ATCC 6538; [6] | S. aureus ATCC 6538; LYM broth, pH 4.5
